Here are results for 30 compounds from ChEMBL document CHEMBL4402548, “Discovery of novel tRNA-amino acid dual-site inhibitors against threonyl-tRNA synthetase by fragment-based target hopping” (Eur J Med Chem, 2020).

For test [1], the system named is Salmonella enterica. In words: Binding affinity to Salmonella enterica Threonyl-tRNA synthetase assessed as change in melting temperature at 0.5 mM incubated for 10 mins by SYPRO orange dye-based thermal shift assay.
The test system of test [2] is Salmonella enterica. In words: Inhibition of Salmonella enterica Threonyl-tRNA synthetase assessed as reduction in aminoacylation activity at 100 uM using L-threonine as substrate incubated for 3 hrs by Kinase-glo luminescence assay relative to control.
Test [3] can be described thus: Inhibition of Salmonella enterica Threonyl-tRNA synthetase assessed as reduction in aminoacylation activity using L-threonine as substrate in presence of incubated for 3 hrs by Kinase-glo luminescence assay.
The subject of the next test is Escherichia coli. In words: Antibacterial activity against Escherichia coli ATCC 25922 by visual method. In kind it is functional.
Test [4] concerns Staphylococcus aureus. Kind of test: Antibacterial activity against methicillin-resistant Staphylococcus aureus R3708 by visual method. The class given is functional.
For test [5], the system named is Staphylococcus aureus. In words: Antibacterial activity against Staphylococcus aureus ATCC 29213 by visual method. The class given is functional.
Another test has as its system Enterococcus faecalis. In words: Antibacterial activity against Enterococcus faecalis ATCC 29212 by visual method. The class given is functional.
The next test has as its system Pseudomonas aeruginosa. Kind of test: Antibacterial activity against Pseudomonas aeruginosa ATCC 27853 by visual method. The class given is functional.
Test [6] has as its system Salmonella enterica. Kind of test: Antibacterial activity against Salmonella enterica 87 by visual method. The class given is functional.
The nature of test [7]: Binding affinity to Salmonella enterica Threonyl-tRNA synthetase at 200 uM by isothermal titration calorimetry.

In brackets after ≈: the same amount, converted by molar mass. Where only a bound is given, the exact number is not on record here.

In the case of `C[C@@H](O)[C@H](N)C(=O)NC/C=C/Cn1cnc2cc(C(F)(F)F)ccc2c1=O`, the ΔTm with Salmonella enterica [1] stood at 11.9 °C. In addition, the inhibition in the test on Salmonella enterica [2] worked out at 21%.
Regarding `C[C@@H](O)[C@H](N)C(=O)NCCCCCCn1cnc2cc(Br)c(Cl)cc2c1=O`, in the test with Salmonella enterica [1], the ΔTm came to 12.4 °C. Moreover, in test [3], the IC50 turned out to be 7.3 µM. Also, the inhibition in the test on Salmonella enterica [2] is 96%.
Turning to `C[C@@H](O)[C@H](N)C(=O)NC/C=C/Cn1cnc2cc3c(cc2c1=O)OCO3`, the ΔTm with Salmonella enterica [1] came to 9.5 °C. Moreover, in the test on Salmonella enterica [2], the inhibition is 5%.
For `C[C@@H](O)[C@H](N)C(=O)NC/C=C/Cn1cnc2cc(Cl)c([N+](=O)[O-])cc2c1=O` the same measures were 0.5 °C and 0%.
Take `C[C@@H](O)[C@H](N)C(=O)NC/C=C/Cn1cnc2cnc(Cl)cc2c1=O`: the ΔTm in the test on Salmonella enterica [1] is 14.9 °C. Also, the IC50 in [3] worked out at 49.7 µM. Besides, the inhibition in the test on Salmonella enterica [2] was determined as 68%.
Turning to `COc1cc2c(=O)n(C/C=C/CNC(=O)[C@@H](N)[C@@H](C)O)cnc2cn1`, in the test with Salmonella enterica [1], the ΔTm worked out at 9.6 °C. Moreover, the inhibition with Salmonella enterica [2] stood at 17%.
For `C[C@@H](O)[C@H](N)C(=O)OCCCCn1cnc2cc(Br)c(Cl)cc2c1=O` the same measures were 10.2 °C and 42%.
In the same order, the values of `C[C@@H](O)[C@H](N)C(=O)NC/C=C/Cn1cnc2cc(Cl)ncc2c1=O` are 8.6 °C and 34%.
Turning to `O=C(CC1NCCCC1O)Cn1cnc2cc(Br)c(Cl)cc2c1=O` (stereo unspecified) [HALOFUGINONE], the MIC is 64 µg/mL (≈ 154 µM) with Escherichia coli; 64 µg/mL (≈ 154 µM) in the test with Staphylococcus aureus [4]; 64 µg/mL (≈ 154 µM) against Staphylococcus aureus [5]; 128 µg/mL (≈ 309 µM) with Enterococcus faecalis; 64 µg/mL (≈ 154 µM) against Pseudomonas aeruginosa; 64 µg/mL (≈ 154 µM) against Salmonella enterica [6]. Further, in the test with Salmonella enterica [1], the thermal shift (ΔTm) was -1.4 °C. The inhibition in the test with Salmonella enterica [2] was 5%.
Turning to `C[C@@H](O)[C@H](N)C(=O)OC/C=C/Cn1cnc2cc(Br)c(Cl)cc2c1=O`, in the test on Salmonella enterica [1], the ΔTm came out at 15.7 °C. The IC50 in test [3] turned out to be 9.6 µM. Besides, the inhibition in the test on Salmonella enterica [2] is 96%.
Consider `C[C@@H](O)[C@H](N)C(=O)OCCCn1cnc2cc(Br)c(Cl)cc2c1=O`, for which the ΔTm in the test on Salmonella enterica [1] was determined as 7.5 °C. Besides, in the test with Salmonella enterica [2], the inhibition was determined as 0%.
In the same order, the values of `COc1cc2ncn(C/C=C/CNC(=O)[C@@H](N)[C@@H](C)O)c(=O)c2cc1OC` are 1.5 °C and 0%.
`C[C@@H](O)[C@H](N)C(=O)NC/C=C/Cn1cnc2cc(Cl)c(F)cc2c1=O`: in the test with Salmonella enterica [1], the ΔTm was determined as 18.8 °C. Besides, the IC50 in test [3] was determined as 9.7 µM. The inhibition in the test on Salmonella enterica [2] came to 93%.
For `C[C@@H](O)[C@H](N)C(=O)NC/C=C/Cn1cnc2cnc(F)cc2c1=O`, the ΔTm in the test on Salmonella enterica [1] stood at 12 °C. Further, in the test with Salmonella enterica [2], the inhibition was 36%.
For `CC1(C)S[C@@H]2[C@H](NC(=O)[C@H](N)c3ccccc3)C(=O)N2[C@H]1C(=O)O` [AMPICILLIN], the MIC against Escherichia coli, against Pseudomonas aeruginosa and against Salmonella enterica [6] was 1 µg/mL (≈ 2.86 µM) throughout.
`C[C@@H](O)[C@H](N)C(=O)NCCCCCn1cnc2cc(Br)c(Cl)cc2c1=O`: in the test on Salmonella enterica [1], the thermal shift (ΔTm) was found to be 14 °C. Also, in test [3], the IC50 is 29.7 µM. The inhibition in the test on Salmonella enterica [2] stood at 87%.
As for `Cc1cc2ncn(C/C=C/CNC(=O)[C@@H](N)[C@@H](C)O)c(=O)c2cc1C`, the ΔTm in the test with Salmonella enterica [1] came to 10.6 °C. In the test with Salmonella enterica [2], the inhibition was 7%.
Regarding `C[C@@H](O)[C@H](N)C(=O)NS(=O)(=O)c1cccc(-c2ccc3[nH]ncc3c2)c1`, the MIC against Escherichia coli, against Staphylococcus aureus [4], against Staphylococcus aureus [5], against Enterococcus faecalis, in the test on Pseudomonas aeruginosa and in the test with Salmonella enterica [6] was more than 256 µg/mL throughout. In addition, the ΔTm with Salmonella enterica [1] was found to be 29.5 °C. Also, the IC50 in test [3] was determined as 0.13 µM. The inhibition with Salmonella enterica [2] is 100%.
For `C[C@@H](O)[C@H](N)C(=O)OCCCCCCn1cnc2cc(Br)c(Cl)cc2c1=O`, the ΔTm in the test with Salmonella enterica [1] worked out at 9.9 °C. The inhibition in the test with Salmonella enterica [2] was 32%.
In the same order, the values of `C[C@@H](O)[C@H](N)C(=O)N1CCC(Cn2cnc3cc(Br)c(Cl)cc3c2=O)CC1` are 12.4 °C and 23%.
Turning to `CN[C@H](CC(C)C)C(=O)N[C@H]1C(=O)N[C@@H](CC(N)=O)C(=O)N[C@H]2C(=O)N[C@H]3C(=O)N[C@H](C(=O)N[C@H](C(=O)O)c4cc(O)cc(O)c4-c4cc3ccc4O)[C@H](O)c3ccc(c(Cl)c3)Oc3cc2cc(c3O[C@@H]2O[C@H](CO)[C@@H](O)[C@H](O)[C@H]2O[C@H]2C[C@](C)(N)[C@H](O)[C@H](C)O2)Oc2ccc(cc2Cl)[C@H]1O` [VANCOMYCIN], the minimal inhibitory concentration (MIC) in the test with Enterococcus faecalis was found to be 2 µg/mL (≈ 1.38 µM).
Regarding `C[C@@H](O)[C@H](N)C(=O)NC/C=C/Cn1cnc2cc(Br)c(Br)cc2c1=O`, the ΔTm in the test with Salmonella enterica [1] is 20.3 °C. Also, in test [3], the IC50 stood at 2.4 µM. For the same compound, the inhibition in the test with Salmonella enterica [2] stood at 100%.
`C[C@@H](O)[C@H](N)C(=O)NC/C=C/Cn1cnc2cc(Cl)c(Cl)cc2c1=O` showed a Kd in test [7] of 1.36 µM. Moreover, the MIC stood at 16 µg/mL (≈ 41.5 µM) against Escherichia coli; 32 µg/mL (≈ 83.1 µM) against Staphylococcus aureus [4]; 32 µg/mL (≈ 83.1 µM) in the test with Staphylococcus aureus [5]; 32 µg/mL (≈ 83.1 µM) in the test on Enterococcus faecalis; 32 µg/mL (≈ 83.1 µM) against Pseudomonas aeruginosa; 16 µg/mL (≈ 41.5 µM) in the test on Salmonella enterica [6]. In the test with Salmonella enterica [1], the ΔTm was found to be 23.7 °C. Moreover, the IC50 in test [3] was found to be 1.4 µM. The inhibition in the test with Salmonella enterica [2] came out at 101%.
With `C[C@@H](O)[C@H](N)C(=O)NC/C=C/Cn1cnc2cc3ccccc3cc2c1=O`, in the test with Salmonella enterica [1], the ΔTm was 16.9 °C. Further, the IC50 in test [3] was found to be 55.5 µM. Moreover, the inhibition in the test on Salmonella enterica [2] was determined as 70%.
Take `C[C@@H](O)[C@H](N)C(=O)NC/C=C/Cn1cnc2cc(Br)c(Cl)cc2c1=O`: the MIC against Escherichia coli came out at 32 µg/mL (≈ 74.5 µM); against Staphylococcus aureus [4] it was 64 µg/mL (≈ 149 µM); in the test with Staphylococcus aureus [5], 32 µg/mL (≈ 74.5 µM); with Enterococcus faecalis, 64 µg/mL (≈ 149 µM); in the test on Pseudomonas aeruginosa it was 32 µg/mL (≈ 74.5 µM); against Salmonella enterica [6] it was 16 µg/mL (≈ 37.2 µM). In the test on Salmonella enterica [1], the ΔTm was found to be 22.5 °C. Moreover, the IC50 in [3] was 3.2 µM. In the test with Salmonella enterica [2], the inhibition was determined as 99%.
Turning to `C[C@@H](O)[C@H](N)C(=O)NC/C=C/Cn1cnc2ccccc2c1=O`, the ΔTm with Salmonella enterica [1] was 9.2 °C. The inhibition with Salmonella enterica [2] amounted to 15%.
Take `C[C@@H](O)[C@H](N)C(=O)N1CCC(C(=O)Cn2cnc3cc(Br)c(Cl)cc3c2=O)CC1`: the ΔTm in the test on Salmonella enterica [1] turned out to be 0 °C. Besides, the inhibition in the test with Salmonella enterica [2] came to 0%.
As to `C[C@@H](O)[C@H](N)C(=O)NC/C=C/Cn1cnc2cc(F)c(F)cc2c1=O`, the ΔTm in the test with Salmonella enterica [1] amounted to 17.2 °C. In test [3], the IC50 came to 39.4 µM. Besides, the inhibition with Salmonella enterica [2] was 77%.
With `C[C@@H](O)[C@H](N)C(=O)OCCCCCn1cnc2cc(Br)c(Cl)cc2c1=O`, in the test with Salmonella enterica [1], the ΔTm was found to be 9.8 °C. Further, in the test on Salmonella enterica [2], the inhibition is 30%.
Take `C[C@@H](O)[C@H](N)C(=O)NC/C=C/Cn1cnc2cc3c(cc2c1=O)OCCO3`: the ΔTm with Salmonella enterica [1] was determined as 0.6 °C. In addition, the inhibition with Salmonella enterica [2] came out at 0%.
